From publication PMC8333425, “Discovery of a dual Ras and ARF6 inhibitor from a GPCR endocytosis screen” (Nature Communications, 2021)
“And” between values parts separate entries of the source, which are not always exact repeats. Equal values may be shown once. Numbered stars: 1 amine (or outer) side, 2 acyl side, 3 side chain; on linkers, the order of the positions; unused ones are H or OH. Bridge positions count the residues as written; N and C are the ends. Square brackets hold non-standard residues; d marks the D form. Peptide text beside a SMILES is read from it. * marks the point of attachment. Leu(3R-OH,Nα-propionyl) = CCC(=O)N[C@H](C(=O)*)[C@H](O)C(C)C; X1 = CC(C)[C@@H](O[*:3])[C@H](N[*:1])C(=O)[*:2]; NMeT = CN[C@H](C(=O)O)[C@@H](C)O; dPhLac = O=C(O)[C@H](O)Cc1ccccc1; NMeA = CN[C@@H](C)C(=O)O; NMeDha = C=C(NC)C(=O)O

Tests used:
[1] = test system: ERK1/2 activation by AT1R; test: Western blot of AT1R-mediated ERK1/2 phosphorylation; type: cell-based, human; details: 50 μM
Method: (§1) HEK293SL cells (10^5 cells per well) were seeded in a poly-L-lysine-coated six-well plate and transiently transfected with 3 μg Flag-AT1R, HA-B2R or HA-β2AR and/or 500 ng Flag-MEK1-WT, Flag-MEK1-DD, Flag-BRAF-WT, Flag-BRAF-V600E, Flag-K-Ras-WT, Flag-K-Ras-G12V, HA-ARF6-WT, or HA-ARF6-T27N. Gαq/11 KO and βarr1/2 KO cells were seeded onto 100 mm dishes at a density of 10^6 cells per dish. Next day, cells were transfected with 3 μg AT1R alone or along with 500 ng of β-arrestin2 using PEI. After 18 h of transfection, cells were detached and re-seeded onto poly-L-lysine coated 12-well plates (~1.5–2 × 10^5cells/well) for subsequent experiments. Forty-eight hours post transfection, in a 37 °C water bath, cells were serum-starved for 30 min, pretreated with DMSO (0.1%) or compound 21/Rasarfin (50 µM or at indicated concentrations) for 30 min, then stimulated or not with the indicated ligand [AngII (1 µM), BK (1 µM), Iso (10 µM) or EGF (100 ng/ml)] at indicated times. Cells were put on ice, washed with PBS and solubilized in 2x laemmli buffer (250 mM Tris–HCl pH 6.8, 2% SDS (w/v), 10% glycerol (v/v), 0.01% bromophenol blue (w/v) and 5% β-mercaptoethanol (v/v)) by heating at 65 °C for 15 min. Lysates were resolved on 10 or 14% SDS-PAGE, transferred to nitrocellulose membranes and immunoblotted for p-ERK1/2, ERK1/2, p-Akt, Akt, HA, Myc, β-actin or FLAG. ImageLab 5.2 software was used to quantify the digital blots as fold of the phosphorylated protein over total protein, which were then normalized as indicated in the figure legends. Uncropped immunoblots are provided in the Source Data file.

[2] = test system: MDA-MB-231 cells; test: Cell viability assay (MTT), MDA-MB-231; type: cell-based, human; details: for cell viability (MTT signal): S_Fig12f
Method: (§2) MDA-MB-231 breast cancer cells and A549 lung carcinomas (1500 cells in 150 μl/well) were seeded overnight on a clear 96-well plate. Twenty-four hours later, the cells were treated with 0.1% DMSO, or different concentrations of Rasarfin (as indicated), or 10 µM of 21.4, 21.8 (MDA-MB-231 breast cancer cells) or Doxorubicin for the indicated times at 37 °C. At each time point, 10 μl of 5 mg/ml MTT was added to each well and the plates were incubated for an additional 4 h at 37 °C. The absorbance at 590 nm was measured by plate reader. Experiments were done in triplicate and repeated three times.

[3] = test system: A549 cells; test: Cell viability assay (MTT), A549; type: cell-based, human; details: Doxorubicin
Method: as §2

[4] = test system: MEK1; test: Western blot of ERK1/2 phosphorylation induced by MEK1 (MEK1-WT / MEK1-DD); type: cell-based, human
Method: as §1

[5] = molecular target: T1, Gαq (Homo sapiens, UniProt P50148); test: Gαq BRET sensor, AT1R-mediated; type: cell-based
T1 construct: expressed in transfected cells; host or cells: HEK293SL
T1 sequence (P50148 whole entry): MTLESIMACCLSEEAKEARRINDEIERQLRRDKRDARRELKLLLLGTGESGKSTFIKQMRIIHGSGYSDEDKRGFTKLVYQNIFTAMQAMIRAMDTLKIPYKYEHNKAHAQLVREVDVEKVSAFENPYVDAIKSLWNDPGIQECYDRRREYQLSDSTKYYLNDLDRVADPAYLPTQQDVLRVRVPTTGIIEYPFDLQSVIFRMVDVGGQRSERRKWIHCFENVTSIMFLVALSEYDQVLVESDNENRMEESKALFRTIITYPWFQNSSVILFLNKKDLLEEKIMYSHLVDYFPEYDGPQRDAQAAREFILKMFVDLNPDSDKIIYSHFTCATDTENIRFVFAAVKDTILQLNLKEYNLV
T1 sequence (P62873 whole entry partner): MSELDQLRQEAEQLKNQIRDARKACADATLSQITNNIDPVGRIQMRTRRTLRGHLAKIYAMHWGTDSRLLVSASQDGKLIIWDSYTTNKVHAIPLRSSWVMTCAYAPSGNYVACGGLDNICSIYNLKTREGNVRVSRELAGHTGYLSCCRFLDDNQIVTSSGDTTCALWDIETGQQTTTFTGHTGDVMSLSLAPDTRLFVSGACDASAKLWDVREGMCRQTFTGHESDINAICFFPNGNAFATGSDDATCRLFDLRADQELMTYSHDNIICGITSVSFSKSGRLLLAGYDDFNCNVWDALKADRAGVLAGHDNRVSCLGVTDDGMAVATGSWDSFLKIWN
T1 sequence (P63211 2-71 partner limits assumed): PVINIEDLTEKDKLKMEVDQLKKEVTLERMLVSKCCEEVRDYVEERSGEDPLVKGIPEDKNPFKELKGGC
Method: HEK293SL cells were seeded at a density of 7.5 × 10^5 cells per 100-mm dish and 24 h later, transiently transfected as such. For receptor internalization experiments, cells were transfected with 0.12 μg AT1R-RlucII, B2R-RlucII, or β2AR-RlucII and 0.48 μg of either rGFP-CAAX (to assess removal from the PM) or rGFP-FYVE (to assess accumulation in the endosomes). For β-arrestin recruitment assays, cells were transfected with 0.48 μg of receptor-YFP along with 0.12 μg of β-arrestin-RlucII. For β-arrestin/AP-2 binding experiments, cells were transfected with 1 μg Flag-AT1R, 1 μg β2-Adaptin-YFP, and 0.12 μg β-arrestin2-RlucII. For G protein activation, cells were transfected with 3 μg of sp-Flag-AT1R along with either 4.5 μg of the Gαq-polycistronic BRET sensor or 0.24 μg of the Gαi3-RlucII and 0.6 μg of GFP10-Gγ2 and Gβ1 sensors or 0.12 μg PKN-RBD-RlucII and 0.48 μg of rGFP-CAAX. For PKC activation, cells were transfected with 3 μg of sp-Flag-AT1R and 0.18 μg of the PKC sensor. For GTPase activation experiments, cells were transfected with 1 μg Flag-AT1R, 0.48 μg of rGFP-CAAX, and either 0.12 μg of GGA3-PBD-RlucII, PAK-CRIB-RlucII or Raf-RBD-RlucII. For biosensor validation experiments, cells were additionally transfected with 500 ng Flag-K-Ras-WT, Flag-K-Ras-G12V, Flag-K-Ras-SOS-CAAX, HA-ARF6-WT, HA-ARF6-T27N, Myc-Rac1-WT, Myc-Rac1-Q61L or Myc-Rac1-T17N. For PI3K/Akt activation experiments, cells were transfected with 0.48 μg of rGFP-CAAX and 0.12 μg of Akt (PH)-RlucII. After 18 h of transfection, the media was replaced and cells were divided for subsequent experiments. Cells were detached and seeded onto poly-L-ornithine-coated 96-well flat white bottom plates (BrandTech Scientific) at a density of 2.5 × 10^4 cells per well in media. […] For kinetics of β-arrestin recruitment or β-arrestin binding to receptor and AP-2 experiments, cells were serum starved for 30 min, pretreated with 21 (50 µM) or Barbadin (100 µM) for 30 min, stimulated with 100 nM AngII or 1 µM BK and BRET signals were monitored at indicated times using a Victor X Light plate reader (PerkinElmer). […] The BRET ratio was determined by calculating the ratio of the light emitted by YFP over the light emitted by the RlucII. […] For the kinetics of GTPase and PI3K/Akt activation, cells were serum starved, pretreated with 21 (50 µM) or Wortmannin (200 nM) for 30 min, stimulated with ligand (100 nM AngII or 100 ng/ml EGF) and BRET signals were monitored at indicated times. […] BRET signals were monitored using a Synergy2 (BioTek) microplate reader and coelenterazine 400a (final concentrations of 5 µM) added 3–5 min prior to BRET measurements. […] The BRET ratio was determined by calculating the ratio of the light emitted by rGFP/GFP10 over the light emitted by the RlucII.

[6] = test system: PI3K/Akt; test: PI3K/Akt BRET sensor (Akt (PH)-RlucII / rGFP-CAAX), EGFR-mediated; type: cell-based, human
Method: HEK293SL cells were seeded at a density of 7.5 × 10^5 cells per 100-mm dish and 24 h later, transiently transfected as such. For receptor internalization experiments, cells were transfected with 0.12 μg AT1R-RlucII, B2R-RlucII, or β2AR-RlucII and 0.48 μg of either rGFP-CAAX (to assess removal from the PM) or rGFP-FYVE (to assess accumulation in the endosomes). For β-arrestin recruitment assays, cells were transfected with 0.48 μg of receptor-YFP along with 0.12 μg of β-arrestin-RlucII. For β-arrestin/AP-2 binding experiments, cells were transfected with 1 μg Flag-AT1R, 1 μg β2-Adaptin-YFP, and 0.12 μg β-arrestin2-RlucII. For G protein activation, cells were transfected with 3 μg of sp-Flag-AT1R along with either 4.5 μg of the Gαq-polycistronic BRET sensor or 0.24 μg of the Gαi3-RlucII and 0.6 μg of GFP10-Gγ2 and Gβ1 sensors or 0.12 μg PKN-RBD-RlucII and 0.48 μg of rGFP-CAAX. For PKC activation, cells were transfected with 3 μg of sp-Flag-AT1R and 0.18 μg of the PKC sensor. For GTPase activation experiments, cells were transfected with 1 μg Flag-AT1R, 0.48 μg of rGFP-CAAX, and either 0.12 μg of GGA3-PBD-RlucII, PAK-CRIB-RlucII or Raf-RBD-RlucII. For biosensor validation experiments, cells were additionally transfected with 500 ng Flag-K-Ras-WT, Flag-K-Ras-G12V, Flag-K-Ras-SOS-CAAX, HA-ARF6-WT, HA-ARF6-T27N, Myc-Rac1-WT, Myc-Rac1-Q61L or Myc-Rac1-T17N. For PI3K/Akt activation experiments, cells were transfected with 0.48 μg of rGFP-CAAX and 0.12 μg of Akt (PH)-RlucII. After 18 h of transfection, the media was replaced and cells were divided for subsequent experiments. Cells were detached and seeded onto poly-L-ornithine-coated 96-well flat white bottom plates (BrandTech Scientific) at a density of 2.5 × 10^4 cells per well in media. The next day, cells were washed once with Tyrode’s buffer (140 mM NaCl, 2.7 mM KCl, 1 mM CaCl2, 12 mM NaHCO3, 5.6 mM D-glucose, 0.5 mM MgCl2, 0.37 mM NaH2PO4, 25 mM HEPES, pH 7.4) and left in Tyrode’s buffer. For kinetics of β-arrestin recruitment or β-arrestin binding to receptor and AP-2 experiments, cells were serum starved for 30 min, pretreated with 21 (50 µM) or Barbadin (100 µM) for 30 min, stimulated with 100 nM AngII or 1 µM BK and BRET signals were monitored at indicated times using a Victor X Light plate reader (PerkinElmer). Coelenterazine H (final concentration of 5 µM) was added 3–5 min prior to BRET measurements. Filter set was 460/80 nm and 535/30 nm for detecting the RlucII Renilla luciferase (donor) and YFP (acceptor) light emissions, respectively. The BRET ratio was determined by calculating the ratio of the light emitted by YFP over the light emitted by the RlucII. For G protein activation, cells were serum starved, pretreated with compounds for 30 min, stimulated with 100 nM AngII for 2 min (Gαq, Gαi3, and Rho sensors) or 5 min (PKC sensor). For the kinetics of GTPase and PI3K/Akt activation, cells were serum starved, pretreated with 21 (50 µM) or Wortmannin (200 nM) for 30 min, stimulated with ligand (100 nM AngII or 100 ng/ml EGF) and BRET signals were monitored at indicated times. For concentration-response curves, cells were serum-starved, pretreated with various concentrations of compounds for 30 min and stimulated with ligand (100 nM AngII, 1 µM BK, 10 µM Isoproterenol (Iso) or 100 ng/ml EGF) in Tyrode’s buffer for 30 min for receptor internalization, 10 min for ARF6, 2 min for Rac and Rho activation and 5 min for Ras activation and PI3K/Akt activation. BRET signals were monitored using a Synergy2 (BioTek) microplate reader and coelenterazine 400a (final concentrations of 5 µM) added 3–5 min prior to BRET measurements. Filter set was 410/80 nm and 515/30 nm for detecting the RlucII Renilla luciferase (donor) and rGFP/GFP10 (acceptor) light emissions, respectively. The BRET ratio was determined by calculating the ratio of the light emitted by rGFP/GFP10 over the light emitted by the RlucII.

CCC(=O)N1CCN(c2ccc(NC(=O)c3cc4ccccc4o3)cc2Cl)CC1 [Compound 21.2]
inhibition of AT1R-mediated ERK1/2 (MAPK) activation (Fig. 8b) [1]: lost their ability to inhibit MAPK

COc1cccc2c1C(=O)c1c(O)c3c(c(O)c1C2=O)C[C@@](O)(C(=O)CO)C[C@@H]3O[C@H]1C[C@H](N)[C@H](O)[C@H](C)O1 [Doxorubicin, reference compound]
MDA-MB-231 cell viability (MTT) ([2]; Doxorubicin 10 µM): potently killed cells
cell viability (MTT signal) ([2]; 24h): 0.213 and 0.2235 and 0.2068
cell viability (MTT signal) ([2]; 48h): 0.2026 and 0.1628 and 0.1313
cell viability (MTT signal) ([2]; 72h): 0.1199 and 0.1728 and 0.1331
cell viability (MTT signal) ([3]; 24h): 0.213 and 0.2235 and 0.2068
cell viability (MTT signal) ([3]; 48h): 0.2026 and 0.1628 and 0.1313
cell viability (MTT signal) ([3]; 72h): 0.1331 and 0.1199 and 0.1728

O=C(NOCC1CC1)c1ccc(F)c(F)c1Nc1ccc(I)cc1Cl [PD184352, reference compound]
Predicted (LS) mean diff. DMSO vs. compound (Bonferroni's multiple comparisons test) ([4]; Flag-MEK1 DD): 3.803
ERK1/2 phosphorylation relative to mock (S_Fig.4c) ([4]; Flag-MEK1 WT): 0.4899 and 0.8 and 0.4446
Predicted (LS) mean diff. DMSO vs. compound (Bonferroni's multiple comparisons test) ([4]; Flag-MEK1 WT): 0.8426
ERK1/2 phosphorylation relative to mock (S_Fig.4c) ([4]; mock): 1
Predicted (LS) mean diff. DMSO vs. compound (Bonferroni's multiple comparisons test) ([4]; mock): 0

C=C1C(=O)N[C@@H](C)C(=O)N(C)[C@@H](C)C(=O)N[C@@H]([C@H](OC(=O)[C@@H](NC(=O)CC)[C@H](O)C(C)C)C(C)C)C(=O)N(C)[C@@H]([C@@H](C)OC)C(=O)O[C@H](C(C)C)[C@H](NC(C)=O)C(=O)O[C@H](Cc2ccccc2)C(=O)N1C [UBO-QIC, reference compound] (Ac-[X1][dPhLac][NMeDha]A[NMeA][X1](Leu(3R-OH,Nα-propionyl))[NMeT](Me); ester 1-C)
Gq BRET sensor signal (S_Fig.4b), single experiments [5]: 0.0505 and 0.06125 and 0.044

COC[C@H]1OC(=O)c2coc3c2[C@@]1(C)C1=C(C3=O)[C@@H]2CCC(=O)[C@@]2(C)C[C@H]1OC(C)=O [Wortmannin, reference compound]
EGF-promoted BRET ([6]; Wortmannin-treated, Log [EGF] (ng/ml) -12): 0

EGF
EGF-promoted BRET ([6]; EGF 100 ng/ml, time 0 min): 0
EGF-promoted BRET ([6]; EGF 100 ng/ml, time 1 min): 0.3827 and 0.39
EGF-promoted BRET ([6]; EGF 100 ng/ml, time 2 min): 0.5443 and 0.5547
EGF-promoted BRET ([6]; EGF 100 ng/ml, time 3 min): 0.521 and 0.605
EGF-promoted BRET ([6]; EGF 100 ng/ml, time 4 min): 0.6008 and 0.512 and 0.5428
EGF-promoted BRET ([6]; EGF 100 ng/ml, time 5 min): 0.5307 and 0.4867 and 0.5263
